Measured values as given in publication PMC7796031, “Studies of Coumarin Derivatives for Constitutive Androstane Receptor (CAR) Activation” (Molecules, 2020).
“Also recorded” adds a separate entry of the source. Read-outs that look alike come from different tables or passages of the source.

Assays:
[1] = target: T1, Constitutive androstane receptor (CAR) (Homo sapiens, UniProt Q14994); test: In vitro CAR activation screening assay (UGT1A1 promoter gtPBREM-pGL4 luciferase reporter in Hep3B-gtPBREM cells); format: cell-based; settings: for activation at 10 µM: read-out: CAR Activation Fold
T1 construct: The pGL4-gtPBREM plasmid was transfected into Hep3B cells; endogenous in cells
T1 sequence (Q14994 1-352): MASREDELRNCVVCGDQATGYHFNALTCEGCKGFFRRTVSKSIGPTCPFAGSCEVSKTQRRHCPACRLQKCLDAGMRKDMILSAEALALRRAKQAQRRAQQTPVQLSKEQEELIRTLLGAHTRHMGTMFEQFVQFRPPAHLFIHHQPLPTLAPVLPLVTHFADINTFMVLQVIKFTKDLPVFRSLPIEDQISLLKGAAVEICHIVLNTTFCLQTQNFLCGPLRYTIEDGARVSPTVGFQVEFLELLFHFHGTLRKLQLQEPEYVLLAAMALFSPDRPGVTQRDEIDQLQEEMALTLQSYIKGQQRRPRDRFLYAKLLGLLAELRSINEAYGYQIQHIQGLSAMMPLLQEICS
Text: Until now, there is no commercially available high throughput screening method for CAR activation. Traditionally, CAR activation can be detected in western blots by its downstream signals such as UGT1A1, MRP2 or CYP2B6. […] However, this method was slow and pricy. In order to rapidly screen all the compounds for CAR activation at less cost, an in vitro CAR activation screening assay was developed: DNA was extracted from Hep3B cells and UGT1A1 promoter was obtained using PCR amplification. Ligation between UGT1A1 promoter and pGL4 vector was performed and the plasmid was amplified via E. coli replication. The desired plasmid was extracted from E. coli and transfected into Hep3B. The desired colony bearing UGT1A1 promoter-pGL4 plasmid was selected by neomycin. CAR activation was measured by adding tested compounds to Hep3B for several hours and luminescence was measured. Higher activation will get higher luminescence readout. This assay system was validated with two different CAR agonists: CITCO (direct agonist) and scoparone (an indirect agonist). […] Different concentration of scoparone at 1, 5, 10 and 20 μM had been tested either for luciferase assay or downstream UGT1A1 and MRP2 expression (data not shown) and 10 μM was selected to be the best condition for the following work.
After successfully establishing the in vitro assay, all of the coumarin compounds were subjected to the screening (at 10 μM) and their SAR was discussed. Although the reporter system can successfully identify CAR-activating compounds under 8 h and display better efficiency and sensitivity compared with western blots, it only presented a medium luciferase response. According to previous studies, CITCO was reported to only moderately enhance human CAR (less than 2-fold), compared with the enhance provided by TCPOBOP for murine CAR (5- to 10-fold) in luciferase reporter assays. […] Another possibility for the medium response in our reporter system might be the contribution of the whole gtPBREM element which might include response-suppressive elements that was used and the single nucleotide variation of DR3 element which was reported to slightly reduce the original UGT1A1 activity.
The genomic DNA was isolated from Hep3B cells using Wizard® Genomic DNA Purification Kit (Promega, Fitchburg, WI, USA). The promoter region of UGT1A1 gene, gtPBREM element, was amplified by AccuPrime^TM Taq DNA Polymerase High Fidelity Kit (Invitrogen, MA, USA). The sequence of the amplified element was confirmed by DNA sequencing company and cloned into pGL4 luciferase reporter vector. The pGL4-gtPBREM plasmid was transfected into Hep3B cells. The stable pGL4-gtPBREM transfected Hep3B cells, Hep3B-gtPBREM cells, were established after G418 selection. The luciferase activity represented of CAR activation ability was measured using individual established clone. Further, CAR-shRNA was obtained from the Genomic Research Center and transfected into Hep3B-gtPBREM cells. The transient transfected shCAR-Hep3B-gtPBREM cells were used for further luciferase assays.
The Hep3B-gtPBREM cells and shCAR-Hep3B-gtPBREM cells (1.5 × 10^5 cells/well) were seeded into 12-well plates for overnight then pre-determined concentration compounds were added for desired time. After treatment, transfected cells were washed twice in PBS, lysated with 1× passive lysis buffer and luciferase intensity of equal amount of cell lysate was measured by a Synergy HT Multi-Mode Microplate Reader (BioTek, Winooski, VT, USA).

[2] = test system: phosphoenopyruvate carboxykinse (PEPCK) mRNA expression; test: PEPCK mRNA expression induced by dexamethasone and 8-bromo-cAMP in H4IIE cells; format: cell-based, rat; settings: dexamethasone (500 nM) + 8-bromo-cAMP
Method: S21 Effects of scoparone, 50 (PLH), and 6 on phosphoenopyruvate carboxykinse (PEPCK) mRNA expression induced by dexamethasone and 8-bromo-cAMP.
A quantified result of dexamethasone (500 nM) and 8-bromo-cAMP (100µM) induced PEPCK mRNA expression in the presence or absence of scoparone, 50 (PLH) and 6 at 0.78 µM was shown. Insulin (10 nM) was served as an experimental control. Quantified data was presented as mean ± S.E.M. (n = 4). **P < 0.01 and ***P < 0.001 when compared with induction control (None).
PEPCK mRNA could be induced by dexamethasone and 8-bromo-cAMP after 3hr. The presence of insulin […]
Scoparone, at 0.78 µM, can suppress PEPCK
In contrast, both 50 (PLH) and 6 could also suppress PEPCK
Cell culture: The rat H4IIE cells were cultured in Dulbecco’s Modified Eagle’sMedium (DMEM) containing 1 g/L glucose, 5% (v/v) fetal calf serum (FBS) and 1% (v/v) antibiotics (100 U/mL penicillin and 0.1 g/L streptomycin). Cultured cells were maintained at 37 ◦C in an atmosphere of 5% CO2 and 95% air.
The measurement of PEPCK gene expression: H4IIE cells were seeded into 6 cm dish and allowed for the attachment. After serum starvation overnight, cells were treated with various conditions described in the figure legend. After treatment, total RNA of each treatment was extracted using TRI-reagent according to the manufacturer’s instructions. The pelleted RNA was dissolved in distilled water, quantified with NanoDrop™ 1000 Spectrophotometer (Thermo Fisher Scientific, USA) and stored at −70 ◦C. Total RNA (1µg) was reverse transcribed to generate templates. 50 ng of cDNA was employed for further PCR. The sequences of […]
primers for β-actin: 5’-[…]- 3’ and 5’-[…]-3’ and […]
(1 picture or pasted object on this page, not shown here)

CAR protein = test: Immunofluorescence staining for CAR translocation in Hep3B cells; format: cell-based, human; settings: pre-treated with 10 nM okadaic acid, then 50 (10 μM) 2 h
Method: Figure 3 Image of immunofluorescence staining for CAR translocation in Hep3B cells after 6,7-diprenoxycoumarin (50) treatment (A) and scoparone treatment (C). Hep3B cells were treated with 50 (10 μM) for 2 h. The negative control group was pre-treated with 10 nM okadaic acid (OA). The blue and green fluorescence stands for signals of nuclei and CAR protein, respectively. The protein expression of nuclear CAR after 6,7-diprenoxycoumarin (50) treatment for 2 h (B).
Hep3B cells (4 × 10^5) were grown on coverslips for overnight then washed twice with 1× PBS and fixed with 4% paraformaldehyde in 1× PBS for 30 min at room temperature. Cells were then permeabilized with 1× PBS containing 0.1% (v/v) Triton X-100 for 10–15 min and blocked in 1× PBS containing 5% BSA for 1 h at room temperature. CAR antibody (1:200 dilutions) was added and reacted at room temperature for 2 h in 1× PBS containing 5% BSA. FITC-conjugated goat anti-rabbit IgG antibody was added for another 1 h at room temperature. Coverslips were mounted and images were acquired under a fluorescence microscope.

[3] = Table 1, 10 μM, (luminescence of compound − luminescence of scoparone)/luminescence of scoparone × 100%
[4] = Table 2, 10 μM, (luminescence of compound − luminescence of scoparone)/luminescence of scoparone × 100%
[5] = Table 3, 10 μM, (luminescence of compound − luminescence of scoparone)/luminescence of scoparone × 100%

Row | Molecule | activation at 10 µM [1, 4] [%] | CAR activation compared with scoparone ([1]; 10 μM) | activation at 10 µM [1, 5] [%] | further results
1 | CC(C)=CCOc1cccc2oc(=O)ccc12 [Compound 6] | – | – | – | activation at 10 µM [1, 3]: -5%; suppression of PEPCK mRNA induction ([2]; test compounds as printed): less potent
2 | O=c1ccc2cc(OC(F)(F)F)ccc2o1 [Compound 11, 6-Trifluoromethoxycoumarin] | – | – | – | melting point: 83 to 85 °C; activation at 10 µM [1, 3]: -34%
3 | O=c1ccc2ccc(OC(F)(F)F)cc2o1 [Compound 20, 7-Trifluoromethoxycoumarin] | – | – | – | melting point: 69 to 71 °C; activation at 10 µM [1, 3]: 18%
4 | C=CCOc1cc2ccc(=O)oc2cc1OCC=C [Compound 44, 6,7-Dialloxycoumarin] | -18 | – | – | melting point: 84 to 85 °C
5 | CCCCOc1cc2ccc(=O)oc2cc1OCCCC [Compound 46, 6,7-Di-n-butoxycoumarin] | -39 | – | – | melting point: 77 to 79 °C
6 | CCCCCCOc1cc2ccc(=O)oc2cc1OCCCCCC [Compound 49, 6,7-Dihexoxycoumarin] | -5 | – | – | –
7 | CC(C)=CCC/C(C)=C/COc1cc2ccc(=O)oc2cc1OC/C=C(\C)CCC=C(C)C [Compound 51, 6,7-Digeranoxycoumarin] | -32 | – | – | –
8 | COc1cc2oc(=O)ccc2cc1OC1OC(CO)C(O)C(O)C1O (stereo not drawn) [Compound 52, isoscopolin] | 35 | superior CAR activating activity than scoparone | – | –
9 | COc1cc2ccc(=O)oc2cc1O[C@@H]1O[C@H](CO)[C@@H](O)[C@H](O)[C@H]1O [Compound 53, scopolin] | 17 | superior CAR activating activity than scoparone | – | –
10 | COc1cc2oc(=O)ccc2c(OC)c1OC [Compound 54, 5,6,7-trimethoxycoumarin] | – | – | -19 | –
11 | COc1cc2oc(=O)ccc2c(OC)c1O [Compound 55, fraxinol] | – | – | – | activation at 10 µM [1]: -17%
12 | COc1cc(OC)c2ccc(=O)oc2c1OC [Compound 56] | – | – | -14 | –
13 | COc1cc(OC)c2ccc(=O)oc2c1O [Compound 57, 5,7-dimethoxy-8-hydroxycoumarin] | – | comparable CAR activation effects to scoparone; also recorded: superior CAR activating activity than scoparone | 2 | –
14 | COc1cc2ccc(=O)oc2c(OC)c1OC [Compound 58, 6,7,8-trimethoxycoumarin] | – | comparable CAR activation effects to scoparone | 0 | –
15 | COc1cc2ccc(=O)oc2c2c1OCO2 [Compound 59, 6-Methoxy-7,8-methylenedioxycoumarin] | – | superior CAR activating activity than scoparone | 36 | increased CAR activation fold ([1]; 10 μM, compared to scoparone): 36%
16 | COc1c2c(c3oc(=O)ccc3c1OC)OCO2 [Compound 60, 5,6-dimethoxy-7,8-methylenedioxycoumarin] | – | good activity; also recorded: superior CAR activating activity than scoparone | 12 | –
17 | C=C1[C@@H](O)[C@@H]2O[C@]3(CC[C@H](/C=C/[C@@H](C)[C@@H]4CC(C)=C[C@@]5(O[C@H](C[C@@](C)(O)C(=O)O)CC[C@H]5O)O4)O3)CC[C@H]2O[C@@H]1[C@@H](O)C[C@H](C)[C@H]1O[C@@]2(CCCCO2)CC[C@H]1C [okadaic acid, reference compound] | – | – | – | CAR translocation activity of 50 after pre-treatment (CAR protein): inhibited
18 | insulin: Insulin (10 nM) served as an experimental control in the PEPCK assay | – | – | – | suppression of PEPCK mRNA induction ([2]; 10 nM, experimental control): suppress such induction
